# From ChEMBL document CHEMBL3407340, “Synthesis, radiolabeling and evaluation of novel 4-oxo-quinoline derivatives as PET tracers for imaging cannabinoid type 2 receptor” (Eur J Med Chem, 2015)
# Key:
# Cannabinoid receptor 1 = Cannabinoid receptor 1 (Homo sapiens, UniProt P21554); experiment: Displacement of [3H]-CP-55940 from human CB1 receptor transfected in CHOK1 cells after 90 mins by liquid scintillation counting analysis; format: cell-based, CHO-K1
# [1] = Drug metabolism in Wistar rat plasma assessed as parent compound remaining at 115 to 163 MBq, iv after 10 mins; format: ADME, organism-based; conditions: read-out: Stability
# [2] = Drug uptake in human lumbar spinal cord at 0.4 nM after 15 mins by autoradiography; format: ADME, tissue-based; conditions: 0.25 h, 0.0004 µM
# Rattus norvegicus [3] = experiment: Biodistribution in Wistar rat thyroid gland at 5 to 10 MBq, iv after 15 mins by gamma counting analysis in presence of GW405883; format: ADME, organism-based; conditions: in vivo, 0.25 h
# Small intestine [4] = experiment: Biodistribution in Wistar rat small intestine at 5 to 10 MBq, iv after 15 mins by gamma counting analysis; format: ADME, organism-based; conditions: in vivo, 0.25 h
# Heart [5] = experiment: Biodistribution in Wistar rat heart at 5 to 10 MBq, iv after 15 mins by gamma counting analysis; format: ADME, organism-based; conditions: in vivo, 0.25 h
# Adrenal gland [6] = experiment: Biodistribution in Wistar rat adrenal gland at 5 to 10 MBq, iv after 15 mins by gamma counting analysis in presence of GW405883; format: ADME, organism-based; conditions: in vivo, 0.25 h
# Brain [7] = experiment: Drug uptake in LPS-treated mouse whole brain at 10 to 18 MBq, iv by PET imaging analysis; format: ADME, organism-based; conditions: in vivo
# Plasma [8] = experiment: Stability in rat plasma after 40 mins; format: ADME, cell-free
# [9] = Biodistribution in Wistar rat urine at 5 to 10 MBq, iv after 15 mins by gamma counting analysis; format: ADME, organism-based; conditions: in vivo, 0.25 h
# Brain [10] = experiment: Biodistribution in Wistar rat brain at 5 to 10 MBq, iv after 15 mins by gamma counting analysis in presence of GW405883; format: ADME, organism-based; conditions: in vivo, 0.25 h
# Lung [11] = experiment: Biodistribution in Wistar rat lung at 5 to 10 MBq, iv after 15 mins by gamma counting analysis; format: ADME, organism-based; conditions: in vivo, 0.25 h
# Plasma [12] = experiment: Stability in human plasma after 40 mins; format: ADME, cell-free
# [13] = Drug metabolism in Wistar rat plasma assessed as parent compound remaining at 115 to 163 MBq, iv after 5 mins; format: ADME, organism-based; conditions: read-out: Stability
# Blood [14] = experiment: Biodistribution in Wistar rat blood at 5 to 10 MBq, iv after 15 mins by gamma counting analysis; format: ADME, organism-based; conditions: in vivo, 0.25 h
# Lung [15] = experiment: Biodistribution in Wistar rat lung at 5 to 10 MBq, iv after 15 mins by gamma counting analysis in presence of GW405883; format: ADME, organism-based; conditions: in vivo, 0.25 h
# Cortex [16] = experiment: Drug uptake in LPS-treated mouse cortex at 10 to 18 MBq, iv by PET imaging analysis in presence of […]; format: ADME, organism-based; conditions: in vivo
# Rattus norvegicus [17] = experiment: Biodistribution in Wistar rat thyroid gland at 5 to 10 MBq, iv after 15 mins by gamma counting analysis; format: ADME, organism-based; conditions: in vivo, 0.25 h
# [18] = Drug metabolism in Wistar rat plasma assessed as parent compound remaining at 115 to 163 MBq, iv after 20 mins; format: ADME, organism-based; conditions: read-out: Stability
# Hippocampus [19] = experiment: Drug uptake in LPS-treated mouse hippocampus at 10 to 18 MBq, iv by PET imaging analysis in presence of […]; format: ADME, organism-based; conditions: in vivo
# Hippocampus [20] = experiment: Drug uptake in LPS-treated mouse hippocampus at 10 to 18 MBq, iv by PET imaging analysis; format: ADME, organism-based; conditions: in vivo
# Muscle tissue [21] = experiment: Biodistribution in Wistar rat muscle at 5 to 10 MBq, iv after 15 mins by gamma counting analysis; format: ADME, organism-based; conditions: in vivo, 0.25 h
# [22] = Partition coefficient, log D of the compound in n-octanol/phosphate buffer at pH 7.4 after 15 mins by shake flask method; format: physicochemical
# Small intestine [23] = experiment: Biodistribution in Wistar rat small intestine at 5 to 10 MBq, iv after 15 mins by gamma counting analysis in presence of GW405883; format: ADME, organism-based; conditions: in vivo, 0.25 h
# Spleen [24] = experiment: Biodistribution in Wistar rat spleen at 5 to 10 MBq, iv after 15 mins by gamma counting analysis in presence of GW405883; format: ADME, organism-based; conditions: in vivo, 0.25 h
# Rattus norvegicus [25] = experiment: Biodistribution in Wistar rat testis at 5 to 10 MBq, iv after 15 mins by gamma counting analysis; format: ADME, organism-based; conditions: in vivo, 0.25 h
# Plasma [26] = experiment: Stability in mouse plasma after 40 mins; format: ADME, cell-free
# Bone [27] = experiment: Biodistribution in Wistar rat bone at 5 to 10 MBq, iv after 15 mins by gamma counting analysis in presence of GW405883; format: ADME, organism-based, Bone element; conditions: in vivo, 0.25 h
# Cortex [28] = experiment: Drug uptake in LPS-treated mouse cortex at 10 to 18 MBq, iv by PET imaging analysis; format: ADME, organism-based; conditions: in vivo
# [29] = Drug metabolism in Wistar rat spleen assessed as parent compound remaining at 115 to 163 MBq, iv after 20 mins; format: ADME, organism-based; conditions: read-out: Stability
# Rattus norvegicus [30] = experiment: Biodistribution in Wistar rat testis at 5 to 10 MBq, iv after 15 mins by gamma counting analysis in presence of GW405883; format: ADME, organism-based; conditions: in vivo, 0.25 h
# Muscle tissue [31] = experiment: Biodistribution in Wistar rat muscle at 5 to 10 MBq, iv after 15 mins by gamma counting analysis in presence of GW405883; format: ADME, organism-based; conditions: in vivo, 0.25 h
# Brain [32] = experiment: Drug uptake in LPS-treated mouse brain at 0.2 nM, iv after 5 days by PET imaging analysis relative to vehicle-treated control; format: ADME, organism-based; conditions: in vivo, 120 h, 0.0002 µM
# Spleen [33] = experiment: Biodistribution in Wistar rat spleen at 5 to 10 MBq, iv after 15 mins by gamma counting analysis; format: ADME, organism-based; conditions: in vivo, 0.25 h
# Liver [34] = experiment: Biodistribution in Wistar rat liver at 5 to 10 MBq, iv after 15 mins by gamma counting analysis; format: ADME, organism-based; conditions: in vivo, 0.25 h
# Pancreas [35] = experiment: Biodistribution in Wistar rat pancreas at 5 to 10 MBq, iv after 15 mins by gamma counting analysis in presence of GW405883; format: ADME, organism-based; conditions: in vivo, 0.25 h
# Rattus norvegicus [36] = experiment: Biodistribution in Wistar rat fat at 5 to 10 MBq, iv after 15 mins by gamma counting analysis; format: ADME, organism-based, Adipose tissue; conditions: in vivo, 0.25 h
# Bone [37] = experiment: Biodistribution in Wistar rat bone at 5 to 10 MBq, iv after 15 mins by gamma counting analysis; format: ADME, organism-based, Bone element; conditions: in vivo, 0.25 h
# Brain [38] = experiment: Drug uptake in LPS-treated mouse whole brain at 10 to 18 MBq, iv by PET imaging analysis in presence of […]; format: ADME, organism-based; conditions: in vivo
# [39] = Drug uptake in human cervical spinal cord at 0.4 nM after 15 mins by autoradiography; format: ADME, tissue-based; conditions: 0.25 h, 0.0004 µM
# Heart [40] = experiment: Biodistribution in Wistar rat heart at 5 to 10 MBq, iv after 15 mins by gamma counting analysis in presence of GW405883; format: ADME, organism-based; conditions: in vivo, 0.25 h
# Rattus norvegicus [41] = experiment: Biodistribution in Wistar rat fat at 5 to 10 MBq, iv after 15 mins by gamma counting analysis in presence of GW405883; format: ADME, organism-based, Adipose tissue; conditions: in vivo, 0.25 h
# Kidney [42] = experiment: Biodistribution in Wistar rat kidneys at 5 to 10 MBq, iv after 15 mins by gamma counting analysis in presence of GW405883; format: ADME, organism-based; conditions: in vivo, 0.25 h
# Brain [43] = experiment: Drug uptake in LPS-treated mouse brain at 0.2 nM, iv after 5 days by PET imaging analysis in presence of GW405883 relative to control; format: ADME, organism-based; conditions: in vivo, 120 h, 0.0002 µM
# Zone of skin [44] = experiment: Biodistribution in Wistar rat skin at 5 to 10 MBq, iv after 15 mins by gamma counting analysis; format: ADME, organism-based; conditions: in vivo, 0.25 h
# Blood [45] = experiment: Biodistribution in Wistar rat blood at 5 to 10 MBq, iv after 15 mins by gamma counting analysis in presence of GW405883; format: ADME, organism-based; conditions: in vivo, 0.25 h
# Kidney [46] = experiment: Biodistribution in Wistar rat kidneys at 5 to 10 MBq, iv after 15 mins by gamma counting analysis; format: ADME, organism-based; conditions: in vivo, 0.25 h
# Spleen [47] = experiment: Biodistribution in Wistar rat spleen at 5 to 10 MBq, iv after 15 mins by gamma counting analysis in presence of GW405883 relative to control; format: ADME, organism-based; conditions: in vivo, 0.25 h
# Liver [48] = experiment: Biodistribution in Wistar rat liver at 5 to 10 MBq, iv after 15 mins by gamma counting analysis in presence of GW405883; format: ADME, organism-based; conditions: in vivo, 0.25 h
# Zone of skin [49] = experiment: Biodistribution in Wistar rat skin at 5 to 10 MBq, iv after 15 mins by gamma counting analysis in presence of GW405883; format: ADME, organism-based; conditions: in vivo, 0.25 h
# Cerebellum [50] = experiment: Drug uptake in LPS-treated mouse cerebellum at 10 to 18 MBq, iv by PET imaging analysis; format: ADME, organism-based; conditions: in vivo
# Adrenal gland [51] = experiment: Biodistribution in Wistar rat adrenal gland at 5 to 10 MBq, iv after 15 mins by gamma counting analysis; format: ADME, organism-based; conditions: in vivo, 0.25 h
# Brain [52] = experiment: Biodistribution in Wistar rat brain at 5 to 10 MBq, iv after 15 mins by gamma counting analysis; format: ADME, organism-based; conditions: in vivo, 0.25 h
# [53] = Biodistribution in Wistar rat urine at 5 to 10 MBq, iv after 15 mins by gamma counting analysis in presence of GW405883; format: ADME, organism-based; conditions: in vivo, 0.25 h
# Cerebellum [54] = experiment: Drug uptake in LPS-treated mouse cerebellum at 10 to 18 MBq, iv by PET imaging analysis in presence of GW405883; format: ADME, organism-based; conditions: in vivo
# Pancreas [55] = experiment: Biodistribution in Wistar rat pancreas at 5 to 10 MBq, iv after 15 mins by gamma counting analysis; format: ADME, organism-based; conditions: in vivo, 0.25 h
# Sequence of Cannabinoid receptor 1 (P21554 whole entry): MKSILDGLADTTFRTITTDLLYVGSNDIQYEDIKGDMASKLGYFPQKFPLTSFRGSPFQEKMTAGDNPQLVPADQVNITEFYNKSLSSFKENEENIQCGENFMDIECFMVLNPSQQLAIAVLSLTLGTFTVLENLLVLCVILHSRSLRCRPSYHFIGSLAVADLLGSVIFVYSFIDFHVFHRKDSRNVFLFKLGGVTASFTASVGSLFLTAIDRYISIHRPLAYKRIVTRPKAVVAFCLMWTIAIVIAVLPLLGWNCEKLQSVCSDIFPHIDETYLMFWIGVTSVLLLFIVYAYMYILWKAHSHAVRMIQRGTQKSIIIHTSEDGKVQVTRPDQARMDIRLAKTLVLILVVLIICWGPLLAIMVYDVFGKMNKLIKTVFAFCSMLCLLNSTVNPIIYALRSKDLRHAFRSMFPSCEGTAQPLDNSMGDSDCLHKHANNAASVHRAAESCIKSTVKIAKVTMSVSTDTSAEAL
compound,measurement,setting,value
CCCCCn1cc(C(=O)NC23CC4CC(CC(C4)C2)C3)c(=O)c2cccc(OC)c21,Ki,Cannabinoid receptor 1,> 10 µM
CCOCCn1cc(C(=O)NC23CC4CC(CC(O)(C4)C2)C3)c(=O)c2cccc(OC)c21,Ki,Cannabinoid receptor 1,> 10 µM
CCCCn1cc(C(=O)NCC2CC2)c(=O)c2cccc(OC)c21,Ki,Cannabinoid receptor 1,> 10 µM
CCOCCn1cc(C(=O)NC23CC4CC(CC(C4)C2)C3)c(=O)c2cccc(O[11CH3])c21,remaining at 10 min,[1],55%
same,Drug uptake,[2],Active
same,Drug uptake,Rattus norvegicus [3],0.064 % ID/g
same,Drug uptake,Small intestine [4],0.924 % ID/g
same,Drug uptake,Heart [5],0.08 % ID/g
same,Drug uptake,Adrenal gland [6],0.262 % ID/g
same,Drug uptake,Brain [7],Active
same,Stability,Plasma [8],Stable
same,Drug uptake,[9],0.06 % ID/g
same,Drug uptake,Brain [10],0.028 % ID/g
same,Drug uptake,Lung [11],0.088 % ID/g
same,Stability,Plasma [12],Stable
same,remaining at 5 min,[13],72%
same,Drug uptake,Blood [14],0.044 % ID/g
same,Drug uptake,Lung [15],0.075 % ID/g
same,Drug uptake,Cortex [16],Not Active
same,Drug uptake,Rattus norvegicus [17],0.077 % ID/g
same,remaining at 20 min,[18],47%
same,Drug uptake,Hippocampus [19],Not Active
same,Drug uptake,Hippocampus [20],Active
same,Drug uptake,Muscle tissue [21],0.065 % ID/g
same,logD at 0.25 h,[22],2.78
same,Drug uptake,Small intestine [23],0.425 % ID/g
same,Drug uptake,Spleen [24],0.062 % ID/g
same,Drug uptake,Rattus norvegicus [25],0.033 % ID/g
same,Stability,Plasma [26],Stable
same,Drug uptake,Bone [27],0.039 % ID/g
same,Drug uptake,Cortex [28],Active
same,remaining at 20 min,[29],81%
same,Drug uptake,Rattus norvegicus [30],0.034 % ID/g
same,Drug uptake,Muscle tissue [31],0.071 % ID/g
same,Drug uptake,Brain [32],Active
same,Drug uptake,Spleen [33],0.284 % ID/g
same,Drug uptake,Liver [34],0.505 % ID/g
same,Drug uptake,Pancreas [35],0.113 % ID/g
same,Drug uptake,Rattus norvegicus [36],0.05 % ID/g
same,Drug uptake,Bone [37],0.046 % ID/g
same,Drug uptake,Brain [38],Not Active
same,Drug uptake,[39],Active
same,Drug uptake,Heart [40],0.091 % ID/g
same,Drug uptake,Rattus norvegicus [41],0.053 % ID/g
same,Drug uptake,Kidney [42],0.134 % ID/g
same,Drug uptake,Brain [43],Not Active
same,Drug uptake,Zone of skin [44],0.05 % ID/g
same,Drug uptake,Blood [45],0.03 % ID/g
same,Drug uptake,Kidney [46],0.122 % ID/g
same,Drug uptake,Spleen [47],78%
same,Drug uptake,Liver [48],0.38 % ID/g
same,Drug uptake,Zone of skin [49],0.057 % ID/g
same,Drug uptake,Cerebellum [50],Active
same,Drug uptake,Adrenal gland [51],0.216 % ID/g
same,Drug uptake,Brain [52],0.025 % ID/g
same,Drug uptake,[53],0.08 % ID/g
same,Drug uptake,Cerebellum [54],Not Active
same,Drug uptake,Pancreas [55],0.11 % ID/g
CCCCn1cc(C(=O)NC(C)(C)C)c(=O)c2cccc(OC)c21,Ki,Cannabinoid receptor 1,> 10 µM
